Where “and” joins values, the source holds several entries; their conditions need not be identical. Equal entries are not always repeated.
What was measured:
[1] = Paste air entrainment, Minimum air protocol
Method in brief: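 Pastes of 400 g cementitious powder were hand-mixed 1 min, then machine-stirred 2 min at 25° C with the mixer 1.0 inch off the bottom and a 1.0 inch stroke. Water was set for a 115±5 mm mini-slump spread without additives. Air content came from the mass of a filled cylinder at 6, 36 and 66 min, with 1 min hand stirring before each reading.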

[2] = Air entrainment in fresh concrete (ASTM C 231-97); conditions: for Air: PCC cement concrete, no fly ash, no Air 40
Protocol: The sacrificial agents were added to the cementitious mixtures in several ways: • 1) mixing together with water and air entrainment agent solution • 2) premixed with the fly ash • 3) post-added into the fresh concrete which already contained the air entrainment agent.

[3] = Paste air entrainment, Maximum air protocol; conditions: for Air entrained at 66 min: Air 30 (0.0125 wt %)/X/ButOH=1/4/4, X = the labelled sulfonated SA
Method in brief: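 Pastes of 400 g cementitious powder in water plus additives, hand-mixed 1 min then mixer-stirred 2 min at 25 °C; water/binder ratio set so additive-free paste gives 115±5 mm mini-slump spread at 10 min. Air content calculated from mass of paste filling a fixed-volume cylinder at 6, 36 and 66 min, paste at rest between readings and hand-stirred 1 min beforehand.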

[4] = Adsorption/precipitation of SA or AEA in 10 wt % aqueous fly ash or cement slurries at pH 12.5; type: physicochemical; conditions: initial SA 3 mM
[5] = Precipitation in slurry extract or leachate; type: physicochemical; conditions: pH 12.5, entries in parentheses

“Sodium Di-isopropopyl naphthalene sulfonate [ND]” showed an Air entrained ([1]; 50:50 fly ash B1 (LOI 4.36%):PCA paste, 0.1 wt % Air 30 alone or with 0.05 wt % of the SA) of 4 vol %, an Air entrained ([1]; 50:50 fly ash C1 (LOI 1.62%):PCA paste, 0.1 wt % Air 30 alone or with 0.05 wt % of the SA) of 4 vol % and an Air entrained ([1]; 50:50 fly ash D (LOI […]):PCA paste, 0.1 wt % Air 30 alone or with 0.05 wt % of the SA) of 3 vol %. The Air entrained ([1]; 50:50 fly ash M1 (LOI […]):PCA paste, 0.1 wt % Air 30 alone or with 0.05 wt % of the SA) was 5 vol %, the Air entrained ([1]; 50:50 fly ash M2 (LOI 5.34%):PCA paste, 0.1 wt % Air 30 alone or with 0.05 wt % of the SA) was 4 vol % and the Air entrained ([1]; 50:50 fly ash M3 (LOI 11.33%):PCA paste, 0.1 wt % Air 30 alone or with 0.05 wt % of the SA) was 4 vol %. For the same substance, the Air entrained ([1]; 50:50 fly ash R (LOI […]):PCA paste, 0.1 wt % Air 30 alone or with 0.05 wt % of the SA) was 3 vol %, the Air entrained ([1]; PCA cement paste, 0.1% SA or AEA alone, Minimum air protocol) was 3 vol % and the “Average of air entrained” value ([1]; over the fly ash:PCA pastes of Table 7, 0.1 wt % Air 30 alone or with 0.05 wt % of the SA) was 4%. For the same substance, the Air ([2]; ND alone 0.001 % CM) was 2.3%, the Air ([2]; ND alone 0.003 % CM) was 4.1% and 3.1% and the Air ([2]; ND alone 0.005 % CM) was 4.6% and 4.8%. For the same substance, the Air ([2]; ND alone 0.010 % CM) was 4.6%, the Air ([2]; ND alone 0.020 % CM) was 3.9% and the Air ([2]; ND alone 0.030 % CM) was 3.8%. For the same substance, the Air ([2]; ND alone 0.040 % CM) was 3.9%, the “increase in air entrained above the control values” ([2]; cement-only concrete without air entrainment agents, various dosages) was 2-3% and the “Air entrained at 66 min” value ([3]; 50:50 fly ash B1 (LOI 4.36%):PCA paste) was 17 vol %. For the same substance, the “Air entrained at 66 min” value ([3]; 50:50 fly ash D (LOI […]):PCA paste) was 24 vol %, the “Air entrained at 66 min” value ([3]; 50:50 fly ash M2 (LOI 5.34%):PCA paste) was 11 vol % and the Air entrained ([3]; PCA cement paste, 0.0125% SA or AEA alone, Maximum air protocol) was 7 vol %. For the same substance, the “Air entrained at 66 min” value ([3]; PCA paste, no fly ash) was 23 vol %, the “air entrained (average)” value ([3]; fly ash:cement pastes, SA added at four (4) times the fixed Air 30 dosage (0.0125%)) was 14% and the “Adsorption (wt % Adsorbed)” value ([4]; 10 wt % fly ash B1 (LOI 4.36%) slurry, Air 30/Air 40 0.105 wt %) was 14 wt %. The “Adsorption (wt % Adsorbed)” value ([4]; 10 wt % fly ash C1, class C (LOI 1.62%) slurry, Air 30/Air 40 0.105 wt %) was 84 wt %, the “Adsorption (wt % Adsorbed)” value ([4]; 10 wt % fly ash C2 (LOI 3.32%) slurry) was 17 wt % and the “Adsorption (wt % Adsorbed)” value ([4]; 10 wt % fly ash M1 (LOI […]) slurry, Air 30/Air 40 0.105 wt %) was 27 wt %. For the same substance, the “Adsorption (wt % Adsorbed)” value ([4]; 10 wt % fly ash M2 (LOI 5.34%) slurry, Air 30/Air 40 0.105 wt %) was 13 wt %, the “Adsorption (wt % Adsorbed)” value ([4]; 10 wt % fly ash M3 (LOI 11.33%) slurry, Air 30/Air 40 0.105 wt %) was 18 wt % and the “Adsorption (wt % Adsorbed)” value ([4]; 10 wt % fly ash N (LOI 0.30%) slurry) was 26 wt %. The “Precipitation (wt % precipitated)” value ([5]; solution extracted from 10 wt % fly ash B1 (LOI 4.36%) slurry) was 0 wt %, the “Precipitation (wt % precipitated)” value ([5]; solution extracted from 10 wt % fly ash C1, class C (LOI 1.62%) slurry) was 31 wt % and the “Precipitation (wt % precipitated)” value ([5]; solution extracted from 10 wt % fly ash C2 (LOI 3.32%) slurry) was 0 wt %. For the same substance, the “Precipitation (wt % precipitated)” value ([5]; solution extracted from 10 wt % fly ash M1 (LOI […]) slurry) was 0 wt %, the “Precipitation (wt % precipitated)” value ([5]; solution extracted from 10 wt % fly ash M2 (LOI 5.34%) slurry) was 0 wt % and the “Precipitation (wt % precipitated)” value ([5]; solution extracted from 10 wt % fly ash M3 (LOI 11.33%) slurry) was 0 wt %. The “Precipitation (wt % precipitated)” value ([5]; solution extracted from 10 wt % fly ash N (LOI 0.30%) slurry) was 0 wt %.

From US7892350B2, “Sacrificial agents for fly ash concrete” (Boral Material Technologies Inc., priority 2003, dated 2011)
